The values below come from patent publication US10100058B2, “Fused heterocyclic compounds as CaM kinase inhibitors” (Gilead Sciences, Inc., priority 2016, dated 2018).

The target of this test is recombinant CaMKIIδ (Homo sapiens (Human), UniProt Q13557). Kind of test: CaMKIIδ biochemical assay (HTRF). The following applies: 10 pM CaMKIIδ, 110 nM calmodulin, 12 μM ATP, 1 hour; read-out: CAMKIID-HTRF-384V2 (IC50 - nM). The procedure:
CaMKIIδ Biochemical Assay
The biochemical activity of recombinant CaMKIIδ was measured by monitoring the phosphorylation of a target peptide using Homogenous Time Resolved Fluorescence (HTRF) technology from CisBio Bioassays.
With `CN(C)c1cc(C(=O)N2CCCC[C@@H]2CN)cc(-c2cnn3ccc(-c4cccs4)nc23)n1` [Example 106, (R)-(2-(aminomethyl)piperidin-1-yl)(2-(dimethylamino)-6-(5-(thiophen-2-yl)pyrazolo[1,5-a]pyrimidin-3-yl)pyridin-4-yl)methanone], the IC50 was 1.59 nM.
For the compound `CCN(CC)[C@@H](C)CNC(=O)c1cc(-c2cnn3ccc(-c4cccs4)nc23)nc(C(F)(F)F)c1` [Example 107, (S)—N-(2-(diethylamino)propyl)-2-(5-(thiophen-2-yl)pyrazolo[1,5-a]pyrimidin-3-yl)-6-(trifluoromethyl)isonicotinamide], the IC50 was determined as 5.62 nM.
Take `CN(C)c1cc(C(=O)N2CC[C@H](N)C2)cc(-c2cnn3ccc(-c4cccs4)nc23)n1` [Example 109, (S)-(3-aminopyrrolidin-1-yl)(2-(dimethylamino)-6-(5-(thiophen-2-yl)pyrazolo[1,5-a]pyrimidin-3-yl)pyridin-4-yl)methanone]: the half-maximal inhibitory concentration (IC50) came to 20.8 nM.
With `COc1cc(C(=O)N2CC[C@H](N)C2)cc(-c2cnn3ccc(-c4cccs4)nc23)n1` [Example 110, (S)-(3-aminopyrrolidin-1-yl)(2-methoxy-6-(5-(thiophen-2-yl)pyrazolo[1,5-a]pyrimidin-3-yl)pyridin-4-yl)methanone], the IC50 was determined as 7.6 nM.
The result for `NC[C@H]1CCCCN1C(=O)c1cc(Cl)nc(-c2cnn3ccc(-c4cccs4)nc23)c1` [Example 111, (R)-(2-(aminomethyl)piperidin-1-yl)(2-chloro-6-(5-(thiophen-2-yl)pyrazolo[1,5-a]pyrimidin-3-yl)pyridin-4-yl)methanone] reads 0.05 nM.
As for `CCN(CC)[C@@H](C)CNC(=O)c1cc(OC)nc(-c2cnn3ccc(-c4cccs4)nc23)c1` [Example 112, (S)—N-(2-(diethylamino)propyl)-2-methoxy-6-(5-(thiophen-2-yl)pyrazolo[1,5-a]pyrimidin-3-yl)isonicotinamide], the IC50 was 0.14 nM.
Consider `NC[C@@H]1CCCCN1C(=O)c1cc(Cl)nc(-c2cnn3ccc(-c4cccs4)nc23)c1` [Example 113, (S)-(2-(aminomethyl)piperidin-1-yl)(2-chloro-6-(5-(thiophen-2-yl)pyrazolo[1,5-a]pyrimidin-3-yl)pyridin-4-yl)methanone], for which the IC50 came out at 41.9 nM.
As to `CCN(CC)[C@@H](C)CNC(=O)c1cc(N)nc(-c2cnn3ccc(-c4ccccc4)nc23)c1` [Example 114, (S)-2-amino-N-(2-(diethylamino)propyl)-6-(5-phenylpyrazolo[1,5-a]pyrimidin-3-yl)isonicotinamide], the IC50 stood at 0.5 nM.
As for `Cc1cc(C(=O)N2CCCC[C@@H]2CN)cc(-c2cnn3ccc(-c4ccccc4)nc23)n1` [Example 115, (R)-(2-(aminomethyl)piperidin-1-yl)(2-methyl-6-(5-phenylpyrazolo[1,5-a]pyrimidin-3-yl)pyridin-4-yl)methanone], the 50% inhibitory concentration (IC50) is 1.41 nM.
In the case of `NC[C@H]1CCCCN1C(=O)c1cc(-c2cnn3ccc(-c4ccccc4)nc23)nc(C(F)(F)F)c1` [Example 116, (R)-(2-(aminomethyl)piperidin-1-yl)(2-(5-phenylpyrazolo[1,5-a]pyrimidin-3-yl)-6-(trifluoromethyl)pyridin-4-yl)methanone], the 50% inhibitory concentration (IC50) amounted to 5.89 nM.
As for `NC[C@H]1CCCCN1C(=O)c1cc(-c2cnn3ccc(-c4ccccc4)nc23)nc(C2CC2)c1` [Example 117, (R)-(2-(aminomethyl)piperidin-1-yl)(2-cyclopropyl-6-(5-phenylpyrazolo[1,5-a]pyrimidin-3-yl)pyridin-4-yl)methanone], the concentration for half-maximal inhibition (IC50) came out at 8.08 nM.
`CN(C)c1cc(C(=O)N2CCCC[C@@H]2CN)cc(-c2cnn3ccc(-c4ccccc4)nc23)n1` [Example 118, (R)-(2-(aminomethyl)piperidin-1-yl)(2-(dimethylamino)-6-(5-phenylpyrazolo[1,5-a]pyrimidin-3-yl)pyridin-4-yl)methanone]: the 50% inhibitory concentration (IC50) amounted to 5.29 nM.
As to `CCN[C@@H](C)CNC(=O)c1cc(CC)nc(-c2cnn3ccc(-c4ccccc4)nc23)c1` [Example 119, (S)-2-ethyl-N-(2-(ethylamino)propyl)-6-(5-phenylpyrazolo[1,5-a]pyrimidin-3-yl)isonicotinamide], the IC50 was 71 nM.
`CCN[C@@H](C)CNC(=O)c1cc(C)nc(-c2cnn3ccc(-c4ccccc4)nc23)c1` [Example 120, (S)—N-(2-(ethylamino)propyl)-2-methyl-6-(5-phenylpyrazolo[1,5-a]pyrimidin-3-yl)isonicotinamide]: the IC50 came out at 41.8 nM.
With `CCN[C@@H](C)CNC(=O)c1cc(N)nc(-c2cnn3ccc(-c4ccccc4)nc23)c1` [Example 121, (S)-2-amino-N-(2-(ethylamino)propyl)-6-(5-phenylpyrazolo[1,5-a]pyrimidin-3-yl)isonicotinamide], the IC50 was 15.7 nM.
Regarding `CCN[C@@H](C)CNC(=O)c1cc(-c2cnn3ccc(-c4ccccc4)nc23)nc(C(C)C)c1` [Example 122, (S)—N-(2-(ethylamino)propyl)-2-isopropyl-6-(5-phenylpyrazolo[1,5-a]pyrimidin-3-yl)isonicotinamide], the concentration for half-maximal inhibition (IC50) amounted to 4.61 nM.
Then `CCN[C@@H](C)CNC(=O)c1cc(-c2cnn3ccc(-c4ccccc4)nc23)nc(C2CC2)c1` [Example 123, (S)-2-cyclopropyl-N-(2-(ethylamino)propyl)-6-(5-phenylpyrazolo[1,5-a]pyrimidin-3-yl)isonicotinamide], with 94.7 nM; and `CCN[C@@H](C)CNC(=O)c1cc(Cl)nc(-c2cnn3ccc(-c4ccccc4)nc23)c1` [Example 124, (S)-2-chloro-N-(2-(ethylamino)propyl)-6-(5-phenylpyrazolo[1,5-a]pyrimidin-3-yl)isonicotinamide], with 17.1 nM; and `CN(C)c1cc(C(=O)N2CC[C@H](N)C2)cc(-c2cnn3ccc(-c4ccccc4)nc23)n1` [Example 125, (S)-(3-aminopyrrolidin-1-yl)(2-(dimethylamino)-6-(5-phenylpyrazolo[1,5-a]pyrimidin-3-yl)pyridin-4-yl)methanone], with 267 nM.
`COc1cc(C(=O)N2CC[C@H](N)C2)cc(-c2cnn3ccc(-c4ccccc4)nc23)n1` [Example 126, (S)-(3-aminopyrrolidin-1-yl)(2-methoxy-6-(5-phenylpyrazolo[1,5-a]pyrimidin-3-yl)pyridin-4-yl)methanone]: the IC50 was determined as 65.6 nM.
For `NC[C@H]1CCCCN1C(=O)c1cc(Cl)nc(-c2cnn3ccc(-c4ccccc4)nc23)c1` [Example 127, (R)-(2-(aminomethyl)piperidin-1-yl)(2-chloro-6-(5-phenylpyrazolo[1,5-a]pyrimidin-3-yl)pyridin-4-yl)methanone], the IC50 is 0.22 nM.
Then `Nc1cc(C(=O)N2C3CCNCC2CC3)cc(-c2cnn3ccc(-c4ccccc4)nc23)n1` (centres unmarked) [Example 128, (2-amino-6-(5-phenylpyrazolo[1,5-a]pyrimidin-3-yl)pyridin-4-yl)(-3,9-diazabicyclo[4.2.1]nonan-9-yl)methanone], with 27.8 nM; and `Nc1cc(C(=O)N2C3CCNCC2CC3)cc(-c2cnn3ccc(-c4cccs4)nc23)n1` (centres unmarked) [Example 129, (2-amino-6-(5-(thiophen-2-yl)pyrazolo[1,5-a]pyrimidin-3-yl)pyridin-4-yl)(-3,9-diazabicyclo[4.2.1]nonan-9-yl)methanone], with 1.55 nM; and `CC(C)(C)c1cc(C(=O)N2CCCC[C@@H]2CN)cc(-c2cnn3ccc(-c4ccccc4)nc23)n1` [Example 130, (R)-(2-(aminomethyl)piperidin-1-yl)(2-(tert-butyl)-6-(5-phenylpyrazolo[1,5-a]pyrimidin-3-yl)pyridin-4-yl)methanone], with 266 nM.
Then `Cc1cc(C(=O)N2CCC[C@@H]2CN)cc(-c2cnn3ccc(-c4ccccc4)nc23)n1` [Example 131, (R)-(2-(aminomethyl)pyrrolidin-1-yl)(2-methyl-6-(5-phenylpyrazolo[1,5-a]pyrimidin-3-yl)pyridin-4-yl)methanone], with 56.1 nM; and `COc1cc(C(=O)N2CCCC[C@@H]2CN)cc(-c2cnn3ccc(-c4ccccc4)nc23)n1` [Example 132, (R)-(2-(aminomethyl)piperidin-1-yl)(2-methoxy-6-(5-phenylpyrazolo[1,5-a]pyrimidin-3-yl)pyridin-4-yl)methanone], with 32.7 nM.
Consider `NC[C@@H]1CCCCN1C(=O)c1cc(Cl)nc(-c2cnn3ccc(-c4ccccc4)nc23)c1` [Example 133, (S)-(2-(aminomethyl)piperidin-1-yl)(2-chloro-6-(5-phenylpyrazolo[1,5-a]pyrimidin-3-yl)pyridin-4-yl)methanone], for which the IC50 came out at 163 nM.
Take `COc1cc(C(=O)N2CCCC[C@H]2CN)cc(-c2cnn3ccc(-c4ccccc4)nc23)n1` [Example 134, (S)-(2-(aminomethyl)piperidin-1-yl)(2-methoxy-6-(5-phenylpyrazolo[1,5-a]pyrimidin-3-yl)pyridin-4-yl)methanone]: the IC50 turned out to be 303 nM.
For the compound `CN(C)c1cc(C(=O)N2CCCC[C@H]2CN)cc(-c2cnn3ccc(-c4ccccc4)nc23)n1` [Example 135, (S)-(2-(aminomethyl)piperidin-1-yl)(2-(dimethylamino)-6-(5-phenylpyrazolo[1,5-a]pyrimidin-3-yl)pyridin-4-yl)methanone], the IC50 is 761 nM.
As for `Cc1cnc(-c2cnn3ccc(-c4ccccc4)nc23)cc1C(=O)N1CCCC[C@@H]1CN` [Example 136, (R)-(2-(aminomethyl)piperidin-1-yl)(5-methyl-2-(5-phenylpyrazolo[1,5-a]pyrimidin-3-yl)pyridin-4-yl)methanone], the IC50 stood at 0.84 nM.
Consider `NC[C@H]1CCCCN1C(=O)c1cc(-c2cnn3ccc(-c4ccccc4)nc23)ncc1Cl` [Example 137, (R)-(2-(aminomethyl)piperidin-1-yl)(5-chloro-2-(5-phenylpyrazolo[1,5-a]pyrimidin-3-yl)pyridin-4-yl)methanone], for which the half-inhibitory concentration (IC50) was found to be 1.82 nM.
Turning to `NC[C@H]1CCCCN1C(=O)c1cc(-c2cnn3ccc(-c4ccccc4)nc23)ncc1N` [Example 138, (R)-(5-amino-2-(5-phenylpyrazolo[1,5-a]pyrimidin-3-yl)pyridin-4-yl)(2-(aminomethyl)piperidin-1-yl)methanone], the half-inhibitory concentration (IC50) came out at 0.4 nM.

In general, IC50 refers to the concentration needed to halve the response being measured.
